Each structure is given as a SMILES string.

The data set in a line: In vitro permeation from TTS in Franz diffusion cell. The following applies: TTS with 10% (m/m) active ingredient and 20% (m/m) solid urea of particle size >100 μm (B) versus TTS containing no urea (A); acrylate adhesive matrix; cow udder, 32° C., 72 h.
Procedure: A commercial acrylate adhesive was dissolved in a solvent. […] This acrylate adhesive composition was cast to form a reservoir layer 500 μm in thickness, and the solvent was evaporated, producing a matrix basis weight of 100 g/m^2. A number of experimental TTS were punched from this active ingredient laminate, and were then used for experiments in vitro.
The Franz diffusion cell is composed of a donor compartment and an acceptor compartment, separated by a membrane (cow udder). The donor compartment contains the TTS, while, for the acceptor compartment, a physiological buffer was used, conditioned to a temperature of 32° C. Samples were taken from the acceptor compartment over a period of 72 h, and were analyzed by HPLC for the permeated amount of active ingredient.
On to `Cn1c(=O)c2c(ncn2C)n(C)c1=O` [caffeine], for which the “increase in active ingredient permeation through the skin (cumulative permeated amount), factor” value (shortened to “increase”) was 8.

Regarding `c1ccc(Cn2c(N3CCNCC3)nc3ccccc32)cc1` [lerisetron], the “increase” value was 9.

Consider `Clc1ccc2nsnc2c1NC1=NCCN1` [tizanidine], for which the “increase” value came out at 4.

Source of the values: US9066887B2, “Transdermal therapeutic system having urea components” (LTS LOHMANN THERAPIE-SYSTEME AG, priority 2008, dated 2015).
